PMC9331544, “Molecular Physicochemical Properties of Selected Pesticides as Predictive Factors for Oxidative Stress and Apoptosis-Dependent Cell Death in Caco-2 and HepG2 Cells” (International Journal of Molecular Sciences, 2022)
Like-named read-outs stand apart in the source and are kept apart here.

Key:
[1] = Alamar Blue cell viability/cytotoxicity assay; assay type: cell-based, human; conditions: human
Description: (§1) In this study, to assess the cytotoxic activity of GLY, IMD, and IMZ, human epithelial colorectal adenocarcinoma (Caco-2), cell lines service (CLS), (Eppelheim, Germany) and human hepatocellular carcinoma (HepG2) (ATCC, Rockville, Maryland, USA) cells were used. Cells were cultured in complete culture media (Dulbecco’s Modified Eagle Media (DMEM), supplemented with 1 mM L-glutamine, 10% (v/v) foetal bovine serum (FBS), and antibiotics (penicillin at 100 U/mL, and streptomycin at 100 μg/mL)) and maintained at 5% CO2/95% air; 37 °C, controlled humidity, in an incubator. Cells were grown in T25 culture flasks to near confluence. Then, these adherent cells were treated with trypsin (trypsin-EDTA), for detachment and subculture, which was stopped using complete culture medium (1:1, trypsin:culture media) as soon as cells were detached (about 6 and 8 minutes of trypsin treatment for HepG2 and Caco-2 cells, respectively). Detached cells were gently re-suspended with a Pasteur pipette and then a sample was counted using an automated cell counter (TC10™, BIORAD, Portugal). A suspension of cells in fresh culture media, at 5 × 10^4 cells/mL was prepared to seed into 96-well microplates (100 µL/well). After seeding, cells were placed in the incubator for 48 h (to adhere and stabilize) before being used, for other details see [66, 67].
(§2) Cell viability was assessed using the Alamar Blue® (AB) assay, after exposure to the pesticides. In summary, cells seeded into 96-well microplates were subjected to various concentrations of the pesticides (GLY: 0–1 mM; IMD: 0–1 mM; IMZ: 0–0.3 mM). To prepare the test solutions, the appropriate volume of the pesticide stock solution was diluted in FBS-free culture media just before its application to the cells. Stock solution of GLY was prepared in water (at 40 mM), and stock solutions of IMD and IMZ were prepared in DMSO (at 20 mM). After 24 h or 48 h of exposure, the test solutions were removed and the Alamar Blue solution (100 µL/well; 10% (v/v) in FBS-free medium) was immediately added to the cells, followed by a further 5 h incubation. The absorbance was then read at 570 and 620 nm using a microplate reader (Multiskan EX; MTX Lab Systems, Inc., Bradenton, FL, USA) and the percentage of the AB reduction was calculated according to the manufacturer’s instructions, as described before. Cell viability, at each condition, was calculated and expressed as percentage of control cells (non-exposed cells).
(§3) The concentrations needed to reduce cell viability by 50% (IC50) were calculated from three independent experiments (each one performed in quadruplicates), as described.

Caco-2 cells [2] = experiment: Alamar Blue cell viability/cytotoxicity assay; assay type: cell-based, human; conditions: mean ± SD (n = 4), read-out: IC50 of pesticide-induced cytotoxicity
Description: as §1, §2, §3

HepG2 cells [3] = experiment: Alamar Blue cell viability/cytotoxicity assay; assay type: cell-based, human; conditions: mean ± SD (n = 4), read-out: IC50 of pesticide-induced cytotoxicity
Description: as §1, §2, §3

Caco-2 cells [4] = experiment: Intracellular ROS content, DCFDA, flow cytometry; assay type: cell-based, human; conditions: for change in ROS content vs control (in words): Caco-2, 24 h, tested concentrations
Description: (§4) To assess pesticides-induced oxidative stress, the intracellular content in reactive oxygen species (ROS), content in glutathione (GSH), and lipid peroxidation was quantified by flow cytometry, following the methods described by Domínguez-Perles, et al. and Queiroz, et al.. Briefly, to assess ROS content, cells re-suspended in PBS (from Section 3.3.1) were centrifuged (5 min, 3000 rpm, bench micro-centrifuge) and, after eliminating the supernatant, 200 μL of 10 µM DCFDA solution (prepared in FBS-free DMEM) was added to each sample. After a 45 min incubation at 37 °C (in the dark, in an incubator), cells were centrifuged to remove excess of probe and re-suspended in PBS. Finally, 5 μL of propidium iodide (PI; 50 μg/mL) was added to each sample 3 min before flow cytometry acquisition.

HepG2 cells [5] = experiment: Intracellular ROS content, DCFDA, flow cytometry; assay type: cell-based, human; conditions: for change in ROS content vs control (in words): HepG2, 24 h, tested concentrations
Description: as §4

Caco-2 cells [6] = experiment: Glutathione (GSH) content, Mercury Orange, flow cytometry; assay type: cell-based, human; conditions: Caco-2, 24 h, tested concentrations
Description: (§5) To assess GSH content, cells re-suspended in PBS (see Section 3.3.1) were incubated with 40 μM Mercury Orange (1-(4-chloromercuryphenyl-azo-2-naphtol) for 5 min (in the dark, room temperature), as described by du Plessis, et al..

HepG2 cells [7] = experiment: as above; assay type: cell-based, human; conditions: HepG2, 24 h, tested concentrations
Description: as §5

Caco-2 cells [8] = experiment: Lipid peroxidation, DHPE-FITC probe, flow cytometry; assay type: cell-based, human
Description: (§6) Lipid peroxidation was evaluated using the DHPE-FITC probe. Cells re-suspended in PBS (see Section 3.3.1) were incubated with 20 μM DHPE-FITC, for 20 min in the dark at room temperature (as describe).

HepG2 cells [9] = experiment: as above; assay type: cell-based, human
Description: as §6

Caco-2 cells [10] = test system: Caco-2 cells
From the text: (§7) Given the role of mitochondria in both oxidative stress and cell death (apoptosis), we evaluated the mitochondrial membrane potential (MMP) using the JC-1 probe (see methods for details). This probe accumulates in the mitochondria in the form of J-aggregates when in normal mitochondrial conditions (polarized) and presents red fluorescence. By contrast, in unhealthy cells, when depolarization occurs, JC-1 enters the mitochondria in lower concentrations forming monomers inducing a fluorescence shift to green fluorescence, thus the loss of MMP is observed through flow cytometry as a reduction in red (FL2) and an increase in green (FL1) fluorescence, or as a reduction in red/green (FL2/FL1) fluorescence ratio [45, 46].
(§8) Pesticide-induced oxidative stress and apoptosis/necrosis events were analysed by flow cytometry. For this, one colour and two-colour flow cytometry assays were performed, using a BD Accuri™ C6 cytometer (Franklin Lakes, NJ, USA) equipment for data acquisition. Each assay was performed at least in triplicate (n = 3) and 5000 gated events were collected from each sample. Data analysis was performed using BD Accuri™ C6 Software, version 1.0.264.21 supplied by Becton Dickinson (Franklin Lakes, NJ, USA).
(§9) Caco-2 and HepG2 cells (handled as described in Section 3.2.1) were seeded in 12-well microplates (at 5 × 10^4 cells/mL density; 750 µL/well), and allowed to adhere and stabilize for 48 h in the incubator. […] Negative control cells (non-exposed cells) were included in each assay. After a 24 h incubation with test solutions, cells were washed with phosphate buffer saline (PBS) solution and then detached from the microplates (as in Section 3.2.1) and placed in centrifuge tubes and centrifuged (5 min, 3000 rpm, bench micro-centrifuge). After eliminating the supernatant, cells were washed in PBS solution through another centrifuge cycle. Then cells were divided before being incubated with the specific markers to assess oxidative stress markers and cell apoptosis/necrosis.
(§10) Mitochondrial membrane potential was analysed using JC-1 probe following the procedures as described by the manufacturer. Caco-2 and HepG2 cells suspended in PBS were centrifuged (5 min, 3000 rpm, bench micro-centrifuge), the supernatant was removed and 200 μL of JC-1 solution (2 μM; diluted in FBS-free culture media) was added to each sample. The samples were incubated for 20 min at 37 °C (in a CO2 incubator) and then analysed by flow cytometry. Negative control, non-exposed, and positive control cells exposed to the protonophore FCCP (5 μM; carbonyl cyanide p-trifluoromethoxyphenylhydrazone) were performed in each set of experiments.

Caco-2 cells [11] = experiment: Apoptosis/necrosis, Annexin-V-FITC/PI double staining, flow cytometry; assay type: cell-based, human; conditions: Caco-2, 24 h, tested concentrations; listed as GLY
Description: (§11) The samples where then incubated for 20 min at room temperature. After this period, 5 μL of propidium iodide (PI; at 50 μg/mL) solution were added to each sample 3 min before acquisition.

HepG2 cells [12] = experiment: as above; assay type: cell-based, human; conditions: HepG2, 24 h, tested concentrations; listed as GLY
Description: as §11

HepG2 cells [13] = conditions: occupational concentrations; ref [29]; cited from earlier work
HepG2 cells [14] = conditions: for HepG2 FL2/FL1 ratio: mean ± SD
From the text: as §7, §8, §9, §10

[15] = test system: L-929 cells (fibroblast cell line); design: method as in PMID 33177931; conditions: 500 μM, ref [33]; cited from earlier work
HepG2 cells [16] = test system: HepG2 cells; design: method as in PMID 34635006; conditions: HepG2, 500 μM, 24 h; ref [31]; cited from earlier work
[17] = ref [47],[48],[49],[50]; cited from earlier work
[18] = IC50 of pesticide-induced cytotoxicity
[19] = HepG2, FCCP positive control (5 μM)

O=C(O)CNCP(=O)(O)O [Glyphosate, N-phosphonomethyl-glycine]
IC50 at 24 h ([1]; Caco-2, 24 h, read-out: IC50 (cytotoxicity)): > 1 mM | IC50 at 48 h ([1]; Caco-2, 48 h, read-out: IC50 (cytotoxicity)): > 1 mM | IC50 at 24 h ([1]; HepG2, 24 h, read-out: IC50 (cytotoxicity)): > 1 mM | IC50 at 48 h ([1]; HepG2, 48 h, read-out: IC50 (cytotoxicity)): > 1 mM | IC50 (Caco-2 cells [2]; Caco-2, 24 h exposure): > 1 mM | IC50 (Caco-2 cells [2]; Caco-2, 48 h exposure): > 1 mM | IC50 (HepG2 cells [3]; HepG2, 24 h exposure): > 1 mM | IC50 (HepG2 cells [3]; HepG2, 48 h exposure): > 1 mM | change in ROS content vs control (in words) (Caco-2 cells [4]; listed as GLY): control-like ROS levels | change in ROS content vs control (in words) (HepG2 cells [5]; listed as GLY): control-like ROS levels | change in GSH content vs control (in words) (Caco-2 cells [6]): did not show GSH levels different from control cells | change in GSH content vs control (in words) (HepG2 cells [7]): initial decrease in GSH content | lipid peroxidation (LP) vs control (in words) (Caco-2 cells [8]; Caco-2, 24 h, tested concentrations): did not produce significant LP | lipid peroxidation (LP) vs control (in words) (HepG2 cells [9]; HepG2, 24 h, tested concentrations): did not produce significant LP | change in mitochondrial membrane potential (in words) (Caco-2 cells [10]; Caco-2, 24 h, tested concentrations, listed as GLY): did not induce significant changes on MMP | apoptosis/necrosis induction (in words) (Caco-2 cells [11]): did not produce significant changes | apoptosis/necrosis induction (in words) (HepG2 cells [12]): did not induce significant changes on cell population distribution | HepG2 cell viability (in words) (HepG2 cells [13]): no reduction in HepG2 cell viability

O=[N+]([O-])NC1=NCCN1Cc1ccc(Cl)nc1 [Imidacloprid, imidacloprid]
IC50 at 24 h [1]: 0.624 ± 0.024 mM | IC50 at 48 h [1]: 0.62 ± 0.011 mM | IC50 at 24 h [1, 18]: > 1 mM | IC50 at 48 h [1, 18]: 0.832 ± 0.03 mM | increase in ROS content compared with control (Caco-2 cells [4]; Caco-2, 750 μM, 24 h): 1.42 fold | change in ROS content vs control (in words) (Caco-2 cells [4]; listed as IMD): significant (p < 0.05) increase in ROS content | increase in ROS content compared with control (HepG2 cells [5]; HepG2, 500 μM, 24 h): 1.59 fold | change in ROS content vs control (in words) (HepG2 cells [5]; listed as IMD): significant (p < 0.05) increase in ROS content | change in GSH content vs control (in words) (Caco-2 cells [6]): increased GSH levels | change in GSH content vs control (in words) (HepG2 cells [7]): increased GSH levels | lipid peroxidation (LP) vs control (in words) (Caco-2 cells [8]): induced significant LP | lipid peroxidation (LP) vs control (in words) (HepG2 cells [9]): not statistically significant | FL2/FL1 ratio reduction (% of control) (Caco-2 cells [10]; Caco-2, 500 μM, 24 h): 21.36±0.05 % of control | FL2/FL1 ratio reduction (% of control) (Caco-2 cells [10]; Caco-2, 750 μM, 24 h): 17.70±2.49 % of control | change in mitochondrial membrane potential (in words) (HepG2 cells [14]): Depolarized MMP | FL2/FL1 ratio reduction (% of control) (HepG2 cells [14]; HepG2, 100 μM, 24 h): 23.79±1.79 % of control | HepG2 FL2/FL1 ratio (HepG2 cells [14]; HepG2, 100 μM, 24 h): 0.17±0.01 | FL2/FL1 ratio reduction (% of control) (HepG2 cells [14]; HepG2, 250 μM, 24 h): 27.49±1.48 % of control | HepG2 FL2/FL1 ratio (HepG2 cells [14]; HepG2, 250 μM, 24 h): 0.16±0.02 | FL2/FL1 ratio reduction (% of control) (HepG2 cells [14]; HepG2, 500 μM, 24 h): 19.93±1.29 % of control | HepG2 FL2/FL1 ratio (HepG2 cells [14]; HepG2, 500 μM, 24 h): 0.18±0.01 | LDH release increase [15]: 50% | ROS content (in words) (HepG2 cells [16]): doubled ROS content | H-bond (donor count) [17]: 1 | H-donor (acceptor count) [17]: 4

N#CC(C#N)=NNc1ccc(OC(F)(F)F)cc1 [FCCP, carbonyl cyanide p-trifluoromethoxyphenylhydrazone, reference compound]
FL2/FL1 ratio reduction (% of control) (Caco-2 cells [10]; Caco-2, FCCP positive control (5 μM)): 93.04±0.93 % of control | Caco-2 FL2/FL1 ratio (Caco-2 cells [10]; Caco-2, FCCP positive control (5 μM), mean ± SD): 0.06±0.02 | FL2/FL1 ratio reduction (% of control) (HepG2 cells [14]; [19]): 79.87±4.12 % of control | HepG2 FL2/FL1 ratio (HepG2 cells [14]; [19]): 0.04±0.01
